IC50 data for 18 compounds are collected here from patent US20250346592A1 (Celgene Corporation, priority 2022, published 2025).

A value given as a limit tells only on which side of the number the result lay.

Assay [1] addresses T1, hPAD4 enzyme (Homo sapiens (Human), UniProt Q9UM07). Kind of assay: RFMS2 assay (RapidFire mass spectrometry, TSTGGRQGSHH peptide substrate). The assay is classed as biochemical. As to conditions: 35 nM recombinant human PAD4, 500 μM TSTGGRQGSHH peptide, 30 minutes at room temperature; read-out: RFMS 2 IC50. The gist of the method:
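IC50 derived from RapidFire LC-MS/MS (positive ESI MRM) of substrate versus product after a 30 min room-temperature reaction stopped with 10% formic acid. Reaction contained 35 nM human PAD4, 500 μM peptide, 2 mM CaCl2, 5 mM DTT at pH 7.4, and compounds diluted 3-fold from 20 μM.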

Assay [2] addresses T1, hPAD4 enzyme. Kind of assay: RFMS1 assay (RapidFire mass spectrometry, BAEE substrate). The assay is classed as biochemical. As to conditions: 5 nM hPAD4, 250 μM BAEE, 30 min preincubation at 37° C., 90 min reaction; read-out: RFMS 1 IC50. The procedure: Compounds were solubilized in 100% DMSO to achieve a 10 mM compound concentration. Compound stock solutions were stored at RT. A series of dilutions were prepared in DMSO and mixed 8 times with 20 μL mixing volume. Final top concentration of compound in the assay is 50 μM. Final assay conditions were as follows: • Reaction volume: 26 μl • Assay buffer: 25 mM hepes, pH 7.5, 5 mM NaCl, 1 mM DTT, 0.2 mg/ml BSA, 0.01% CHAPS, 50 µM Calcium, and 5 μM TPEN • Final concentrations: 5 nM hPAD4 enzyme, 250 µM BAEE, and 0.5% DMSO • Total incubation time: 30 mins compound and enzyme preincubation at 37° C., 90 min enzyme/substrate reaction, 30 min reaction with phenyl glyoxal at 37° C. • Stop solution: 40 μl 5% TCA in ACN • 0.13 μL of compound solution was added to 13 μL of 10 nM PAD4 in assay buffer. After […] min 13 μl of 500 µM of BAEE was added in 25 mM hepes, pH 7.5, 5 mM NaCl, 1 mM DTT, 0.2 mg/ml BSA, 0.01% CHAPS, 50 μM Calcium, 5 μM TPEN was added and the reaction incubated for 90 min at 37° C. The enzymatic reaction was quenched by addition of 15 μl of 6.1N TCA, 100% Final Concentration is 20%, 35 μl of 8.5 mM phenyl glyoxal (final concentration 4 mM) is then added and the reaction is incubated for 30 min at 37° C.
After 30 minutes the plates are spun down to remove all precipitate. The enzyme reaction was quenched with an equal volume of methanol containing internal standard (modified citrulline). Samples were loaded onto the Rapid Fire RF300 system (Agilent) wherein they were first sipped for 1000 ms and then directly loaded to a C18 separations cartridge using a mixture of acetonitrile containing 0.01% formic acid for 3000 ms desalting. The flow rate of the mobile phase was 1.5 ml/min. Once the samples were eluted from the cartridge, a mobile phase of acetonitrile containing 0.01% formic acid was used to move the samples into the mass spectrometer for 4000 ms at a flow rate of 1.25 ml/min/Sciex API5500 triple quadrupole mass spectrometer (Applied Biosystems) equipped with ESI was used to analyze the peptidyl citrulline and internal standard ions.
MRM transition of product and internal standard were monitored at m/z 424.5 to 350.4 and m/z 293 to 247 respectively. The dwell time for each transition was set at 200 ms, and the ESI voltage was used at 5500 with a source temperature of 400° C. Extracted ion peaks for each transition were integrated using the Rapid Fire Integrator software. Peak area of analyte was normalized with internal standard.).
Compounds having an activity designated as “A” provided an IC50≤10 nM; compounds having an activity designated as “B” provided an IC50 11-100 nM; compounds having an activity designated as “C” provided an IC50 101-500 nM; compounds having an activity designated as “D” provided an IC50 501-1000 nM; compounds having an activity designated as “E” provided an IC50>1000 nM.

T1 sequence (Q9UM07 whole entry): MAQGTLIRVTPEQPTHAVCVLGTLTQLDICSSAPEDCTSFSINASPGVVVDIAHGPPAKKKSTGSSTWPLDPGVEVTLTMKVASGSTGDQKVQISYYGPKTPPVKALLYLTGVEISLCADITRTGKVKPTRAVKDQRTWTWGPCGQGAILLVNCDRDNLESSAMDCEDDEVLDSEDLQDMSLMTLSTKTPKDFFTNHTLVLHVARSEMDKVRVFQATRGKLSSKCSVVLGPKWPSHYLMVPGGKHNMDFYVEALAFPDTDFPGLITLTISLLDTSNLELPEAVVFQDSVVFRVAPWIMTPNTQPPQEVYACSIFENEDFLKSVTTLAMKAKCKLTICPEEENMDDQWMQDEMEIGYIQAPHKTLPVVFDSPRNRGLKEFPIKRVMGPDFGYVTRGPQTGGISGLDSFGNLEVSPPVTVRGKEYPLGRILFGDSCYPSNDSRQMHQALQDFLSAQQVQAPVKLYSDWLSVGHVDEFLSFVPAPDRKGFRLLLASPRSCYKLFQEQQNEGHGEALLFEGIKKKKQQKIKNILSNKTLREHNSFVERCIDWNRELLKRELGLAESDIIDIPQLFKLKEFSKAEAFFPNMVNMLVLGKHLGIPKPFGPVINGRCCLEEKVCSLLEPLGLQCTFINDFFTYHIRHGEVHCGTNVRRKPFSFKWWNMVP

`CN[C@H](C)CN1CCc2cc3c(cc2C1=O)nc(-c1cc2ccccc2n1CC1CC1)n3C` [Example 1, (R)-2-(1-(cyclopropylmethyl)-1H-indol-2-yl)-1-methyl-6-(2-(methylamino)propyl)-1,6,7,8-tetrahydro-5H-imidazo[4,5-g]isoquinolin-5-one]: the IC50 on hPAD4 enzyme [1] lay within 101 to 500 nM; at hPAD4 enzyme [2], 501 to 1000 nM.

For `C[C@H](CN1CCc2cc3c(cc2C1=O)nc(-c1cc2ccccc2n1CC1CC1)n3C)NCCF` [Example 3, (R)-2-(1-(cyclopropylmethyl)-1H-indol-2-yl)-6-(2-((2-fluoroethyl)amino)propyl)-1-methyl-1,6,7,8-tetrahydro-5H-imidazo[4,5-g]isoquinolin-5-one], the IC50 at hPAD4 enzyme [1] and on hPAD4 enzyme [2] was > 1000 nM each time.

For `C[C@@H](N)CN1CCc2cc3c(cc2C1=O)nc(-c1cc2ccccc2n1CC1CC1)n3C` [Example 5, (R)-6-(2-aminopropyl)-2-(1-(cyclopropylmethyl)-1H-indol-2-yl)-1-methyl-1,6,7,8-tetrahydro-5H-imidazo[4,5-g]isoquinolin-5-one], the half-inhibitory concentration (IC50) on hPAD4 enzyme [1] and at hPAD4 enzyme [2] was 101 to 500 nM in each case.

As to `Cn1c(-c2cc3ccccc3n2CC2CC2)nc2cc3c(cc21)CCN(CC(C)(C)N)C3=O` [Example 6, 6-(2-amino-2-methyl-propyl)-2-[1-(cyclopropylmethyl)indol-2-yl]-1-methyl-7,8-dihydroimidazo[4,5-g]isoquinolin-5-one], the IC50 at hPAD4 enzyme [1] and on hPAD4 enzyme [2] was > 1000 nM each time.

As to `CC[C@@H](N)CN1CCc2cc3c(cc2C1=O)nc(-c1cc2ccccc2n1CC1CC1)n3C` [Example 9, (R)-6-(2-aminobutyl)-2-(1-(cyclopropylmethyl)-1H-indol-2-yl)-1-methyl-1,6,7,8-tetrahydro-5H-imidazo[4,5-g]isoquinolin-5-one], the IC50 on hPAD4 enzyme [1] lay within 101 to 500 nM; on hPAD4 enzyme [2], 501 to 1000 nM.

Take `Cn1c(-c2cc3ccccc3n2CC2CC2)nc2cc3c(cc21)CCN(C[C@H](N)C1CC1)C3=O` [Example 10, (R)-6-(2-amino-2-cyclopropylethyl)-2-(1-(cyclopropylmethyl)-1H-indol-2-yl)-1-methyl-1,6,7,8-tetrahydro-5H-imidazo[4,5-g]isoquinolin-5-one]: the concentration for half-maximal inhibition (IC50) on hPAD4 enzyme [1] and on hPAD4 enzyme [2] was 101 to 500 nM each time.

For `CC(C)[C@@H](N)CN1CCc2cc3c(cc2C1=O)nc(-c1cc2ccccc2n1CC1CC1)n3C` [Example 11, (R)-6-(2-amino-3-methylbutyl)-2-(1-(cyclopropylmethyl)-1H-indol-2-yl)-1-methyl-1,6,7,8-tetrahydro-5H-imidazo[4,5-g]isoquinolin-5-one], the IC50 on hPAD4 enzyme [1] and at hPAD4 enzyme [2] was > 1000 nM in each case.

Turning to `Cn1c(-c2cc3ccccc3n2CC2CC2)nc2cc3c(cc21)CCN(C[C@H](N)CF)C3=O` [Example 12, (S)-6-(2-amino-3-fluoropropyl)-2-(1-(cyclopropylmethyl)-1H-indol-2-yl)-1-methyl-1,6,7,8-tetrahydro-5H-imidazo[4,5-g]isoquinolin-5-one], the IC50 on hPAD4 enzyme [1] and at hPAD4 enzyme [2] was 101 to 500 nM throughout.

With `Cn1c(-c2cc3ccccc3n2CC2CC2)nc2cc3c(cc21)CCN(C[C@H]1COCCN1)C3=O` [Example 13, (S)-2-(1-(cyclopropylmethyl)-1H-indol-2-yl)-1-methyl-6-(morpholin-3-ylmethyl)-1,6,7,8-tetrahydro-5H-imidazo[4,5-g]isoquinolin-5-one], the IC50 at hPAD4 enzyme [1] is 501 to 1000 nM; on hPAD4 enzyme [2] it was 101 to 500 nM.

Take `Cn1c(-c2cc3ccccc3n2CC2CC2)nc2cc3c(cc21)CCN(C[C@H](N)C(F)F)C3=O` [Example 14, (S)-6-(2-amino-3,3-difluoropropyl)-2-(1-(cyclopropylmethyl)-1H-indol-2-yl)-1-methyl-1,6,7,8-tetrahydro-5H-imidazo[4,5-g]isoquinolin-5-one]: the half-inhibitory concentration (IC50) on hPAD4 enzyme [1] is > 1000 nM; on hPAD4 enzyme [2], 501 to 1000 nM.

Take `COc1cccc2cc(-c3nc4cc5c(cc4n3C)CCN(C[C@H](N)[C@H](C)F)C5=O)n(CC3CC3)c12` [Example 15a, 6-((2S,3S)-2-amino-3-fluorobutyl)-2-(1-(cyclopropylmethyl)-7-methoxy-1H-indol-2-yl)-1-methyl-1,6,7,8-tetrahydro-5H-imidazo[4,5-g]isoquinolin-5-one]: the 50% inhibitory concentration (IC50) at hPAD4 enzyme [1] and at hPAD4 enzyme [2] was 101 to 500 nM in each case.

Regarding `COc1cccc2cc(-c3nc4cc5c(cc4n3C)CCN(C[C@H](N)C(C)F)C5=O)n(CC3CC3)c12` (stereo partly drawn) [Example 15b, 6-((2S,3R)-2-amino-3-fluorobutyl)-2-(1-(cyclopropylmethyl)-7-methoxy-1H-indol-2-yl)-1-methyl-1,6,7,8-tetrahydro-5H-imidazo[4,5-g]isoquinolin-5-one], the IC50 lay within 501 to 1000 nM at hPAD4 enzyme [1] and 101 to 500 nM at hPAD4 enzyme [2].

Consider `COc1cccc2cc(-c3nc4cc5c(cc4n3C)CCN(C[C@@H](C)N)C5=O)n(CC3CC3)c12` [Example 35, (R)-6-(2-aminopropyl)-2-(1-(cyclopropylmethyl)-7-methoxy-1H-indol-2-yl)-1-methyl-1,6,7,8-tetrahydro-5H-imidazo[4,5-g]isoquinolin-5-one], for which the IC50 on hPAD4 enzyme [1] and at hPAD4 enzyme [2] was 11 to 100 nM in each case.

On to `Cc1cccc2cc(-c3nc4cc5c(cc4n3C)CCN(C[C@H](N)CF)C5=O)n(CC3CC3)c12` [Example 48, (S)-6-(2-amino-3-fluoropropyl)-2-(1-(cyclopropylmethyl)-7-methyl-1H-indol-2-yl)-1-methyl-1,6,7,8-tetrahydro-5H-imidazo[4,5-g]isoquinolin-5-one], for which the IC50 on hPAD4 enzyme [1] and at hPAD4 enzyme [2] was 101 to 500 nM in each case.

In the case of `COc1cccc2cc(-c3nc4cc5c(cc4n3C)CCN(C[C@H](N)CF)C5=O)n(CC3CC3)c12` [Example 53, (S)-6-(2-amino-3-fluoropropyl)-2-(1-(cyclopropylmethyl)-7-methoxy-1H-indol-2-yl)-1-methyl-1,6,7,8-tetrahydro-5H-imidazo[4,5-g]isoquinolin-5-one], the IC50 at hPAD4 enzyme [1] was in the range of 101 to 500 nM; on hPAD4 enzyme [2], 11 to 100 nM.

For the compound `Cc1cc(N2CC(C)(C)OC2=O)ccc1-c1ccc2cc(-c3nc4cc5c(cc4n3C)CCN(C[C@H]3COCCN3)C5=O)n(CC3CC3)c2n1` [Example 247, (S)-3-(4-(1-(cyclopropylmethyl)-2-(1-methyl-6-(morpholin-3-ylmethyl)-5-oxo-5,6,7,8-tetrahydro-1H-imidazo[4,5-g]isoquinolin-2-yl)-1H-pyrrolo[2,3-b]pyridin-6-yl)-3-methylphenyl)-5,5-dimethyloxazolidin-2-one], on hPAD4 enzyme [2], the IC50 lay within 11 to 100 nM.

Consider `Cn1c(-c2cc3ccc(-c4cccc(O)c4F)nc3n2CC2CC2)nc2cc3c(cc21)CCN(C[C@H]1COCCN1)C3=O` [Example 248, (S)-2-(1-(cyclopropylmethyl)-6-(2-fluoro-3-hydroxyphenyl)-1H-pyrrolo[2,3-b]pyridin-2-yl)-1-methyl-6-(morpholin-3-ylmethyl)-1,6,7,8-tetrahydro-5H-imidazo[4,5-g]isoquinolin-5-one], for which, at hPAD4 enzyme [2], the concentration for half-maximal inhibition (IC50) is 501 to 1000 nM.

As for `COC1CCN(c2ccc3cc(-c4nc5cc6c(cc5n4C)CCN(C[C@H]4COCCN4)C6=O)n(CC4CC4)c3c2)CC1` [Example 249, (S)-2-(1-(cyclopropylmethyl)-6-(4-methoxypiperidin-1-yl)-1H-indol-2-yl)-1-methyl-6-(morpholin-3-ylmethyl)-1,6,7,8-tetrahydro-5H-imidazo[4,5-g]isoquinolin-5-one], the IC50 at hPAD4 enzyme [2] lay within 501 to 1000 nM.

Usually IC50 stands for the point on the concentration scale where inhibition reaches its midpoint.
